Test results reported in patent US20240327417A1, “HETEROCYCLIC COMPOUNDS” (BeiGene Switzerland GmbH, priority 2021, published 2024).

What was measured:
[1] = biological target: T1, Full length DGKα (D21-10BG, SignalChem) (Homo sapiens, UniProt P23743); assay: Biochemical DGK IC50 assay (ADP-Glo, lipid micelle substrate), DGKα; conditions: 7.5 nM enzyme, 140 μM ATP, 80 μM DAG, 1 hour preincubation, 1 hour reaction, room temperature, read-out: IC50s for DGKα
T1 construct: Full length DGKα (D21-10BG, SignalChem); purchased SignalChem D21-10BG
In short: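 Full-length enzyme was assayed by ADP-Glo on DAG/PS lipid micelles at room temperature in HEPES/MgCl2/CaCl2 buffer with BSA, Na3VO4 and Tween-20, using a 1 h reaction and luminescence read-out.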

[2] = biological target: T2, Full length DGKζ (in-house protein M1-V929) (Homo sapiens, UniProt Q13574); assay: Biochemical DGK IC50 assay (ADP-Glo, lipid micelle substrate), DGKζ; conditions: 0.5 nM enzyme, 140 μM ATP, 80 μM DAG, 1 hour preincubation, 1 hour reaction, room temperature, read-out: IC50s for DGKζ
T2 construct: His (N); TEV cleavage site (N); made in house; host or cells: Sf9 insect cells (baculovirus, Bac-to-Bac)
In short: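 In-house full-length human DGKζ, baculovirus-expressed in Sf9 cells, was assayed with a DAG/PS lipid micelle substrate at room temperature. Buffer was 50 mM HEPES, 10 mM MgCl2, 0.01% BSA, 0.1 mM Na3VO4, 0.005% Tween-20, 0.01 mM CaCl2, with final compound 1.55˜10000 nM or 23.3˜150000 nM.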

T1 sequence (P23743 whole entry): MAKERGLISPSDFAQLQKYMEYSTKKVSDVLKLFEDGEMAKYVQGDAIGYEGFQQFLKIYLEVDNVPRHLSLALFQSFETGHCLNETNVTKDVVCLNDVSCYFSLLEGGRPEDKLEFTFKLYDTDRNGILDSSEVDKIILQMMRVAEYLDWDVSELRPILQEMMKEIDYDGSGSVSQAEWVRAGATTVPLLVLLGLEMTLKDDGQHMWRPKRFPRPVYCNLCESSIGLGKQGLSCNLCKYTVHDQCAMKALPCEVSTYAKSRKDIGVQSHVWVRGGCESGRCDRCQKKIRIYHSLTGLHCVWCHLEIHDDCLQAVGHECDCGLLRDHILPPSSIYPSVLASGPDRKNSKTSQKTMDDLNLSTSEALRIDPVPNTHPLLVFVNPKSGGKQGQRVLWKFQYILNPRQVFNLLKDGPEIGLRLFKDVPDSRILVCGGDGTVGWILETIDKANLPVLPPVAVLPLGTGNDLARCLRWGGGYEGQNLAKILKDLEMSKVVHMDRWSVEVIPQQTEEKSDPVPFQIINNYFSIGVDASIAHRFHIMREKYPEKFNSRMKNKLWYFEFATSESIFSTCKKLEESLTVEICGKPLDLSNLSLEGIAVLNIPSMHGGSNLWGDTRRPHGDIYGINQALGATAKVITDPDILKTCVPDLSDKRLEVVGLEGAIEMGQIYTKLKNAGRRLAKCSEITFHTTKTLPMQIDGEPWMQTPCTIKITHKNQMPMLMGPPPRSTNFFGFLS
T2 sequence (Q13574 1-929 isoform Q13574-4): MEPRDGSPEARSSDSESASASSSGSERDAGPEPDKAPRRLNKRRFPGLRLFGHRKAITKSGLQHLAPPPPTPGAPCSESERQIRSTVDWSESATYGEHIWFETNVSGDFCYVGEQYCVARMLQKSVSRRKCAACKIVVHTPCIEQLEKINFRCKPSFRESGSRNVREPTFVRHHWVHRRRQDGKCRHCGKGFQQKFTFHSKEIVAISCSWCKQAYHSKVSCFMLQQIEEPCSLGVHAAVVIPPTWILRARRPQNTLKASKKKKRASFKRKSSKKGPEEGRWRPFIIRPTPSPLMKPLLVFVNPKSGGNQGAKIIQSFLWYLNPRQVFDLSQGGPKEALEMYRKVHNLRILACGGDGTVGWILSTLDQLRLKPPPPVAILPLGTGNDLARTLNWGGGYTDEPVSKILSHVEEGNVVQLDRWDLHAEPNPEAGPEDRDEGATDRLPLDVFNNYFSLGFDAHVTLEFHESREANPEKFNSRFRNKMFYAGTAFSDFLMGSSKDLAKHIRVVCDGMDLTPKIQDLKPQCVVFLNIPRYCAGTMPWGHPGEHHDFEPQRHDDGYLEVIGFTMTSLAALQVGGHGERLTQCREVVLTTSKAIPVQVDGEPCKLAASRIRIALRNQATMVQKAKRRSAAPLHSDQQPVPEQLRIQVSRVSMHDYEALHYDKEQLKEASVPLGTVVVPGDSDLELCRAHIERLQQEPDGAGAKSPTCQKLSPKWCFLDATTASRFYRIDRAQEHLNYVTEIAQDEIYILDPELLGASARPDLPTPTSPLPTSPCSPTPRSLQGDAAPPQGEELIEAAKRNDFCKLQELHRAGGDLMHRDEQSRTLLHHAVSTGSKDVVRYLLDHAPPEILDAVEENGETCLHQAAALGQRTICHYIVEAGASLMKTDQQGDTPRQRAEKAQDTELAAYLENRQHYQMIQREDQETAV

SMILES | IC50 [1] | IC50 [2]
CC[C@H]1CN(C(C)c2ccc3c(c2)OCO3)[C@H](CC)CN1c1cc(=O)n(C)n2cc(CC#N)nc12 (stereo partly drawn) [Compound A71, 2-(8-((2S,5R)-4-(1-(benzo[d][1,3]dioxol-5-yl)ethyl)-2,5-diethylpiperazin-1-yl)-5-methyl-6-oxo-5,6-dihydroimidazo[1,2-b]pyridazin-2-yl)acetonitrile] | 66 nM | 61 nM
CC[C@H]1CN(C(C)c2ccc(OC)cc2)[C@H](CC)CN1c1cc(=O)n(C)n2cc(CC#N)nc12 (stereo partly drawn) [Compound A72, 2-(8-((2S,5R)-2,5-diethyl-4-(1-(4-methoxyphenyl)ethyl)piperazin-1-yl)-5-methyl-6-oxo-5,6-dihydroimidazo[1,2-b]pyridazin-2-yl)acetonitrile] | 23 nM | 76 nM
CC[C@H]1CN(C(C)c2ccc3nc(C)sc3n2)[C@H](CC)CN1c1c(Br)c(=O)n(C)n2cc(CC#N)nc12 (stereo partly drawn) [Compound A83, 2-(7-bromo-8-((2S,5R)-2,5-diethyl-4-(1-(2-methylthiazolo[5,4-b]pyridin-5-yl)ethyl)piperazin-1-yl)-5-methyl-6-oxo-5,6-dihydroimidazo[1,2-b]pyridazin-2-yl)acetonitrile] | 42600 nM | > 10000 nM
CC[C@H]1CN(C(C)c2ccc(C3(F)CC3)cc2)[C@H](CC)CN1c1cc(=O)n(C)n2cc(CC#N)nc12 (stereo partly drawn) [Compound A88, 2-(8-((2S,5R)-2,5-diethyl-4-(1-(4-(1-fluorocyclopropyl)phenyl)ethyl)piperazin-1-yl)-5-methyl-6-oxo-5,6-dihydroimidazo[1,2-b]pyridazin-2-yl)acetonitrile] | 72 nM | 39 nM
CC[C@H]1CN(C(CCOC)c2ccc3nc(C)sc3c2)[C@H](C)CN1c1cc(=O)n(C)n2cc(CC#N)nc12 (stereo partly drawn) [Compound A103, 2-(8-((2S,5R)-2-ethyl-4-(3-methoxy-1-(2-methylbenzo[d]thiazol-6-yl)propyl)-5-methylpiperazin-1-yl)-5-methyl-6-oxo-5,6-dihydroimidazo[1,2-b]pyridazin-2-yl)acetonitrile] | 701 nM | 138 nM
CC[C@H]1CN(C(C)c2ccc3nc(C)sc3c2)[C@H](CC)CN1c1c(C#N)c(=O)n(C)n2cc(CC#N)nc12 (stereo partly drawn) [Compound A111, 2-(cyanomethyl)-8-((2S,5R)-2,5-diethyl-4-(1-(2-methylbenzo[d]thiazol-6-yl)ethyl)piperazin-1-yl)-5-methyl-6-oxo-5,6-dihydroimidazo[1,2-b]pyridazine-7-carbonitrile] | 575 nM | 132 nM
CC[C@H]1CN(C(C)c2ccc3ncsc3n2)[C@H](CC)CN1c1c(C#N)c(=O)n(C)n2cc(CC#N)nc12 (stereo partly drawn) [Compound A114, 2-(cyanomethyl)-8-((2S,5R)-2,5-diethyl-4-(1-(thiazolo[5,4-b]pyridin-5-yl)ethyl)piperazin-1-yl)-5-methyl-6-oxo-5,6-dihydroimidazo[1,2-b]pyridazine-7-carbonitrile] | 68 nM | 127 nM

Results, then the molecule that gave them:

IC50 [1] | IC50 [2] | SMILES
36 nM | 18 nM | CC[C@H]1CN(C(C)c2ccc3scnc3c2)[C@H](CC)CN1c1cc(=O)n(C)n2cc(CC#N)nc12 (stereo partly drawn) [Compound A65, 2-(8-((2S,5R)-4-(1-(benzo[d]thiazol-5-yl)ethyl)-2,5-diethylpiperazin-1-yl)-5-methyl-6-oxo-5,6-dihydroimidazo[1,2-b]pyridazin-2-yl)acetonitrile]
263 nM | 1440 nM | CC#CCc1cn2c(n1)c(N1C[C@@H](CC)N(C(C)c3ccc4nc(C)sc4c3)C[C@@H]1C)cc(=O)n2C (stereo partly drawn) [Compound A69, 2-(but-2-yn-1-yl)-8-((2S,5R)-5-ethyl-2-methyl-4-(1-(2-methylbenzo[d]thiazol-6-yl)ethyl)piperazin-1-yl)-5-methylimidazo[1,2-b]pyridazin-6(5H)-one]
18 nM | 36 nM | CC[C@@H]1CN(c2cc(=O)n(C)n3cc(CC#N)nc23)[C@@H](C)CN1C(C)c1ccc2ccsc2n1 (stereo partly drawn) [Compound A86, 2-(8-((2S,5R)-5-ethyl-2-methyl-4-(1-(thieno[2,3-b]pyridin-6-yl)ethyl)piperazin-1-yl)-5-methyl-6-oxo-5,6-dihydroimidazo[1,2-b]pyridazin-2-yl)acetonitrile]
112 nM | 11 nM | CC[C@@H]1CN(c2cc(=O)n(C)n3cc(CC#N)nc23)[C@@H](C)CN1C(C)c1ccc2cc(C)sc2n1 (stereo partly drawn) [Compound A87, 2-(8-((2S,5R)-5-ethyl-2-methyl-4-(1-(2-methylthieno[2,3-b]pyridin-6-yl)ethyl)piperazin-1-yl)-5-methyl-6-oxo-5,6-dihydroimidazo[1,2-b]pyridazin-2-yl)acetonitrile]
26 nM | 96 nM | CC[C@@H]1CN(c2cc(=O)n(C)n3cc(CC#N)nc23)[C@@H](C)CN1C(C)c1ccc2cc(F)sc2n1 (stereo partly drawn) [Compound A106, 2-(8-((2S,5R)-5-ethyl-4-(1-(2-fluorothieno[2,3-b]pyridin-6-yl)ethyl)-2-methylpiperazin-1-yl)-5-methyl-6-oxo-5,6-dihydroimidazo[1,2-b]pyridazin-2-yl)acetonitrile]
